Data as given in PubChem BioAssay AID248 (DTP/NCI, 2004).
Values joined by “and” are separate entries in the source; they are usually repeats but may differ in a detail not shown here. Equal entries are not always repeated. Toxic doses and inconclusive results are not listed.

System: L1210 leukemia ip in BDF1 mice, survival T/C
Test: NCI In Vivo Anticancer Drug Screen. Data for tumor model L1210 Leukemia (intraperitoneal) in B6D2F1 (BDF1) mice
Details: endpoint: mean survival time, higher = longer survival
Method in brief: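 In this screen, tumor-bearing mice given compound are compared to those given vehicle, and their survival values are reported as a treated-to-control quotient.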

[1] = dose: 100.0 mg/kg/injection, schedule: Q01DX009 (ip), vehicle: saline
[2] = dose: 100.0 mg/kg/injection, schedule: Q04DX003 (ip), vehicle: Klucel (hydroxypropylcellulose) (HPC)
[3] = dose: 200.0 mg/kg/injection, schedule: Q04DX003 (ip), vehicle: Klucel (hydroxypropylcellulose) (HPC)
[4] = dose: 200.0 mg/kg/injection, schedule: Q01DX009 (ip), vehicle: Klucel (hydroxypropylcellulose) (HPC)
[5] = dose: 400.0 mg/kg/injection, schedule: Q01DX009 (ip), vehicle: Klucel (hydroxypropylcellulose) (HPC)
[6] = dose: 100.0 mg/kg/injection, schedule: Q01DX009 (ip), vehicle: saline with Tween-80
[7] = dose: 200.0 mg/kg/injection, schedule: Q01DX009 (ip), vehicle: saline with Tween-80
[8] = dose: 100.0 mg/kg/injection, schedule: Q01DX001 (ip), vehicle: Klucel (hydroxypropylcellulose) (HPC)
[9] = dose: 200.0 mg/kg/injection, schedule: Q01DX001 (ip), vehicle: Klucel (hydroxypropylcellulose) (HPC)
[10] = dose: 400.0 mg/kg/injection, schedule: Q01DX001 (ip), vehicle: Klucel (hydroxypropylcellulose) (HPC)
[11] = dose: 100.0 mg/kg/injection, schedule: Q04DX002 (ip), vehicle: saline with Tween-80
[12] = dose: 200.0 mg/kg/injection, schedule: Q04DX002 (ip), vehicle: saline with Tween-80
[13] = dose: 400.0 mg/kg/injection, schedule: Q04DX002 (ip), vehicle: saline with Tween-80
[14] = dose: 400.0 mg/kg/injection, schedule: Q04DX003 (ip), vehicle: Klucel (hydroxypropylcellulose) (HPC)
[15] = dose: 100.0 mg/kg/injection, schedule: Q04DX002 (ip), vehicle: Klucel (hydroxypropylcellulose) (HPC)
[16] = dose: 200.0 mg/kg/injection, schedule: Q04DX002 (ip), vehicle: Klucel (hydroxypropylcellulose) (HPC)
[17] = dose: 400.0 mg/kg/injection, schedule: Q04DX002 (ip), vehicle: Klucel (hydroxypropylcellulose) (HPC)

O=S(=O)(O)SCCCNc1ncnc2ccccc12
T/C (dose: 100.0 mg/kg/injection, schedule: Q01DX001 (ip), vehicle: carboxymethylcellulose (CMC)): 107 % of control | T/C (dose: 200.0 mg/kg/injection, schedule: Q01DX001 (ip), vehicle: carboxymethylcellulose (CMC)): 105 % of control | T/C (dose: 400.0 mg/kg/injection, schedule: Q01DX001 (ip), vehicle: carboxymethylcellulose (CMC)): 102 % of control

CCN(CC)C(=O)N1CCCCC1
T/C [1]: 101 % of control | T/C (dose: 100.0 mg/kg/injection, schedule: Q04DX002 (ip), vehicle: saline): 97 % of control | T/C (dose: 200.0 mg/kg/injection, schedule: Q01DX009 (ip), vehicle: saline): 92 % of control | T/C (dose: 200.0 mg/kg/injection, schedule: Q04DX002 (ip), vehicle: saline): 100 % of control | T/C (dose: 400.0 mg/kg/injection, schedule: Q04DX002 (ip), vehicle: saline): 95 % of control

O=C(COc1cccc(Cl)c1Cl)Nc1ccc[n+](Cc2ccc(S(=O)(=O)F)cc2)c1
T/C [2]: 104 % of control | T/C [3]: 100 % of control

CCC(C(C)C)C(Br)C(Br)C(C)C1CCC2C3CC=C4CC(OC(C)=O)CCC4(C)C3CCC12C (stereo not given)
T/C [4]: 91 % of control | T/C [5]: 96 % of control

C=C(C)COC(N)=O
T/C [6]: 95 % of control | T/C (dose: 100.0 mg/kg/injection, schedule: Q04DX003 (ip), vehicle: saline with Tween-80): 102 % of control | T/C [7]: 96 % of control | T/C (dose: 200.0 mg/kg/injection, schedule: Q04DX003 (ip), vehicle: saline with Tween-80): 102 % of control | T/C (dose: 400.0 mg/kg/injection, schedule: Q01DX009 (ip), vehicle: saline with Tween-80): 91 % of control | T/C (dose: 400.0 mg/kg/injection, schedule: Q04DX003 (ip), vehicle: saline with Tween-80): 103 % of control

C/C=C(\C)C(=O)O
T/C (dose: 222.0 mg/kg/injection, schedule: Q01DX Z (ip), vehicle: saline): 90 % of control

NC(=S)Cc1ccccc1
T/C [8]: 91 % of control | T/C [9]: 87 % of control | T/C [10]: 100 % of control

O=[N+]([O-])c1cccc([I+]c2cccc([N+](=O)[O-])c2)c1
T/C [11]: 100 % of control | T/C [2]: 96 % of control | T/C [12]: 92 % of control | T/C [3]: 104 % of control | T/C [13]: 100 % of control | T/C [14]: 91 % of control

CCNC(C1CCCCC1)C(C)OC(=O)c1ccc(N)cc1 (stereo not given)
T/C (dose: 75.0 mg/kg/injection, schedule: Q01DX001 (ip), vehicle: saline): 98 % of control

C1CCN(NC2=NCCO2)CC1
T/C [1]: 95 % of control

CCCCCCCCCC[n+]1cccc(C(N)=O)c1
T/C (dose: 5.0 mg/kg/injection, schedule: Q04DX003 (ip), vehicle: saline): 93 % of control | T/C (dose: 10.0 mg/kg/injection, schedule: Q04DX003 (ip), vehicle: saline): 96 % of control | T/C (dose: 20.0 mg/kg/injection, schedule: Q04DX003 (ip), vehicle: saline): 96 % of control

O=C(c1ccccc1)C1CN(C2CCCCC2)C1c1ccccc1 (stereo not given)
T/C [8]: 109 % of control and 97 % of control | T/C [2]: 95 % of control | T/C [9]: 117 % of control and 99 % of control | T/C [3]: 93 % of control | T/C [10]: 97 % of control and 91 % of control | T/C [14]: 97 % of control

c1ccc([As]2c3ccccc3Nc3ccccc32)cc1
T/C [11]: 89 % of control | T/C [12]: 86 % of control | T/C [13]: 86 % of control

CC(=O)OCN1C(=O)N(COC(C)=O)C(c2ccccc2)(c2ccccc2)C1=O
T/C [6]: 102 % of control | T/C [11]: 102 % of control | T/C [7]: 87 % of control | T/C [12]: 102 % of control | T/C [13]: 106 % of control

CCCCCCCCCCCCC#N
T/C (dose: 100.0 mg/kg/injection, schedule: Q01DX009 (ip), vehicle: Klucel (hydroxypropylcellulose) (HPC)): 111 % of control | T/C [2]: 110 % of control | T/C [4]: 119 % of control | T/C [3]: 113 % of control | T/C [5]: 100 % of control | T/C [14]: 117 % of control

Cc1ccccc1/C=N/NC(=O)c1cccc2ccccc12
T/C (dose: 100.0 mg/kg/injection, schedule: Q01DX001 (ip), vehicle: saline): 89 % of control | T/C (dose: 200.0 mg/kg/injection, schedule: Q01DX001 (ip), vehicle: saline): 100 % of control

O=C(OCCN1CCCCC1)C(O)C1CCCCC1 (stereo not given)
T/C (dose: 100.0 mg/kg/injection, schedule: Q04DX003 (ip), vehicle: saline): 101 % of control | T/C (dose: 200.0 mg/kg/injection, schedule: Q04DX003 (ip), vehicle: saline): 103 % of control

CCn1cc(C(=O)O)c(=O)c2ccc3ccccc3c21
T/C [15]: 100 % of control | T/C [16]: 103 % of control | T/C [17]: 100 % of control

CCOC(=O)c1ccc(NC(=O)Sc2cccc(C)c2)cc1
T/C [2]: 93 % of control | T/C [3]: 97 % of control | T/C [14]: 96 % of control

CCCCCCCCCCCC[n+]1cccc2ccccc21
T/C (dose: 0.13 mg/kg/injection, schedule: Q01DX Z (ip), vehicle: carboxymethylcellulose (CMC)): 112 % of control | T/C (dose: 0.25 mg/kg/injection, schedule: Q01DX Z (ip), vehicle: carboxymethylcellulose (CMC)): 96 % of control | T/C (dose: 0.25 mg/kg/injection, schedule: Q04DX003 (ip), vehicle: saline): 97 % of control | T/C (dose: 0.5 mg/kg/injection, schedule: Q01DX001 (ip), vehicle: saline): 93 % of control | T/C (dose: 0.5 mg/kg/injection, schedule: Q01DX Z (ip), vehicle: carboxymethylcellulose (CMC)): 98 % of control | T/C (dose: 0.5 mg/kg/injection, schedule: Q04DX003 (ip), vehicle: saline): 92 % of control | T/C (dose: 0.7 mg/kg/injection, schedule: Q01DX009 (ip), vehicle: saline): 92 % of control | T/C (dose: 1.0 mg/kg/injection, schedule: Q01DX001 (ip), vehicle: saline): 88 % of control | T/C (dose: 1.0 mg/kg/injection, schedule: Q01DX015 (ip), vehicle: carboxymethylcellulose (CMC)): 108 % of control | T/C (dose: 1.0 mg/kg/injection, schedule: Q01DX Z (ip), vehicle: carboxymethylcellulose (CMC)): 98 % of control | T/C (dose: 1.0 mg/kg/injection, schedule: Q04DX003 (ip), vehicle: saline): 108 % of control | T/C (dose: 1.4 mg/kg/injection, schedule: Q04DX003 (ip), vehicle: saline): 94 % of control | T/C (dose: 2.0 mg/kg/injection, schedule: Q01DX015 (ip), vehicle: carboxymethylcellulose (CMC)): 106 % of control

O=C(COc1ccccc1)Nc1ccc(Br)cc1
T/C [15]: 103 % of control | T/C [16]: 103 % of control | T/C [17]: 95 % of control

O=C(CNC(=O)c1ccc(C(=O)NCC(=O)Nc2ccc(C3=NCCN3)cc2)cc1)Nc1ccc(C2=NCCN2)cc1
T/C (dose: 1.87 mg/kg/injection, schedule: Q01DX015 (ip), vehicle: methylcellulose (MC)): 102 % of control | T/C (dose: 3.75 mg/kg/injection, schedule: Q01DX015 (ip), vehicle: methylcellulose (MC)): 103 % of control | T/C (dose: 7.5 mg/kg/injection, schedule: Q01DX015 (ip), vehicle: methylcellulose (MC)): 100 % of control | T/C (dose: 10.0 mg/kg/injection, schedule: Q01DX015 (ip), vehicle: methylcellulose (MC)): 102 % of control | T/C (dose: 62.0 mg/kg/injection, schedule: Q01DX Z (ip), vehicle: carboxymethylcellulose (CMC)): 188 % of control | T/C (dose: 125.0 mg/kg/injection, schedule: Q01DX Z (ip), vehicle: carboxymethylcellulose (CMC)): 233 % of control | T/C (dose: 150.0 mg/kg/injection, schedule: Q01DX001 (ip), vehicle: methylcellulose (MC)): 154 % of control | T/C (dose: 250.0 mg/kg/injection, schedule: Q01DX Z (ip), vehicle: carboxymethylcellulose (CMC)): 106 % of control | T/C (dose: 300.0 mg/kg/injection, schedule: Q01DX001 (ip), vehicle: methylcellulose (MC)): 158 % of control | T/C (dose: 600.0 mg/kg/injection, schedule: Q01DX001 (ip), vehicle: methylcellulose (MC)): 187 % of control and 201 % of control and 207 % of control | T/C (dose: 900.0 mg/kg/injection, schedule: Q01DX001 (ip), vehicle: methylcellulose (MC)): 174 % of control and 262 % of control
